US7205304B2, “Sulfonyl-Derivatives as novel inhibitors of histone deacetylase” (Janssen Pharmaceutica N.V., priority 2002, dated 2007)
Values after ≈ are worked out from the molar mass of the structure shown.

What was measured:
[1] = system: A2780 ovarian carcinoma cells; assay: Antiproliferative activity on A2780 cells (MTT); assay type: cell-based, human; settings: Homo sapiens, 96 h, four days of incubation, read-out: Cellular activity pIC50 (converted)
Procedure, shortened: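 A2780 ovarian carcinoma cells were seeded at 1500 cells/well and exposed to compound for four days, with DMSO ≤0.1%. Viability was measured by MTT (2 h, 37° C) and expressed as a percentage of untreated controls after blank subtraction. Initial single-point testing was at 10^−6 M, then full curves gave pIC50.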

[2] = Kinetic solubility in aqueous media (nephelometry); assay type: physicochemical; settings: phosphate citrate buffer, pH 7.4, aqueous buffer, kinetic from dmso stock, phosphate citrate buffer pH 7.4, turbidity of three dilution steps; read-out: Solubility Score
Procedure, shortened: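 DMSO stock (5 mM) diluted in three consecutive steps into phosphate citrate buffer pH 7.4, in triplicate; turbidity of each dilution read by nephelometry immediately after the last step. Compounds ranked into 3 classes: score 3 if first dilution clear, 2 if first unclear but second clear.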

[3] = system: A 2780 ovarium carcinoma cells; assay: A2780 mouse xenograft model; assay type: in vivo; settings: orally 10, 20 and 40 mpk once daily, day 4 to day 32; two independent studies; maximal inhibition once at 20 mpk, once at 40 mpk
Description: Immunodeficient mice were injected subcutaneously with A 2780 ovarium carcinoma cells (10^7cells/200 μl/mouse). Subsequently they were orally treated with 10, 20 and 40 mpk of compound once daily between day 4 and day 32. The compound was dissolved in 0.9% NaCl, 20% β-cyclodextrine. On day 32 tumours were harvested and individual tumour weight of each mouse was determined. Each experiment included 10 mice.

Structure (SMILES): O=C(NO)c1cnc(N2CCN(S(=O)(=O)c3ccc4ccccc4c3)CC2)nc1 [Compound 6]
- IC50 [1]: 0.0461 µM
- solubility [2]: 75.8 to 454 µM (≈ 31.3 to 188 µg/mL)
- antitumoural effect (tumour weight on day 32) [3]: strong antitumoural effect at all doses
